Laboratory results: PubChem BioAssay (NCI)
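Values below derive from 48-hour exposures of cells grown in 96-well plates, with endpoints linearly interpolated between the two concentrations bracketing the appropriate inhibition level. GI50: concentration for 50% inhibition of growth. The concentration for full growth arrest is given as TGI.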

Tests used:
Experiment in all cases: DTP human tumour cell line panel, 48 h
SF-539 CNS = tested on: SF-539 CNS
MALME-3M melanoma = tested on: MALME-3M melanoma
CAKI-1 renal = tested on: CAKI-1 renal
DU-145 prostate = tested on: DU-145 prostate
IGROV1 ovarian = tested on: IGROV1 ovarian
SW-620 colon = tested on: SW-620 colon
UACC-62 melanoma = tested on: UACC-62 melanoma
MDA-MB-231 breast = tested on: MDA-MB-231 breast
OVCAR-8 ovarian = tested on: OVCAR-8 ovarian
T-47D breast = tested on: T-47D breast

For `CCCOC(=O)N[C@H]1CCc2c(Cl)c(OC)c(OC)c(OC)c2-c2ccc(SC)c(=O)cc21`, the GI50 (SF-539 CNS) was under 0.01 µM, the TGI (SF-539 CNS) was under 0.0356 µM and the GI50 (MALME-3M melanoma) was under 0.01 µM. For the same compound, the TGI (MALME-3M melanoma) was 17.1 µM, the GI50 (CAKI-1 renal) was under 0.0226 µM and the TGI (CAKI-1 renal) was 14.1 µM. It also gave a GI50 (DU-145 prostate) of under 0.01 µM, a TGI (DU-145 prostate) of 0.0575 µM and a GI50 (IGROV1 ovarian) of under 0.01 µM. For the same compound, the TGI (IGROV1 ovarian) was over 65.6 µM, the GI50 (SW-620 colon) was under 0.01 µM and the TGI (SW-620 colon) was over 52.5 µM. It also gave a GI50 (UACC-62 melanoma) of under 0.01 µM, a TGI (UACC-62 melanoma) of 13.8 µM and a GI50 (MDA-MB-231 breast) of under 0.01 µM. For the same compound, the TGI (MDA-MB-231 breast) was 4.71 µM, the GI50 (OVCAR-8 ovarian) was under 0.0122 µM and the TGI (OVCAR-8 ovarian) was over 100 µM.

For `O=C1C=C(Nc2ccccc2C(=O)CC(=O)C(=O)Nc2cccc([N+](=O)[O-])c2)c2ccccc2C1=O`, the TGI (SF-539 CNS) was over 100 µM, the TGI (MALME-3M melanoma) was 46.7 µM and the TGI (CAKI-1 renal) was over 100 µM. The TGI (IGROV1 ovarian) was over 100 µM, the TGI (SW-620 colon) was 87 µM and the TGI (UACC-62 melanoma) was 86.8 µM. The TGI (OVCAR-8 ovarian) was over 100 µM.

`CC(=O)Oc1c(C)c(-c2ccccc2)c(C)c(-c2ccccc2)c1C(=S)c1ccccc1` gave a TGI (SF-539 CNS) of over 100 µM, a TGI (MALME-3M melanoma) of over 100 µM and a TGI (IGROV1 ovarian) of over 100 µM. It also gave a TGI (UACC-62 melanoma) of over 100 µM and a TGI (OVCAR-8 ovarian) of over 100 µM.

`CC(=O)c1ccc(NC(=O)/C(CC(=O)c2sc(-c3cccnc3)nc2C)=N/NC(N)=O)cc1` gave a TGI (MALME-3M melanoma) of over 100 µM, a TGI (CAKI-1 renal) of 86 µM and a TGI (IGROV1 ovarian) of over 100 µM. The TGI (SW-620 colon) was over 100 µM, the TGI (UACC-62 melanoma) was over 100 µM and the TGI (OVCAR-8 ovarian) was over 100 µM.

With `CC1(O)C(C)(O)C2(C)O[Te]3(OC12C)OC1(C)C(C)(O)C(C)(O)C1(C)O3` (stereo not drawn) the TGI (SF-539 CNS) was over 100 µM, the TGI (MALME-3M melanoma) was over 100 µM and the TGI (IGROV1 ovarian) was 35.7 µM. The TGI (UACC-62 melanoma) was over 100 µM and the TGI (OVCAR-8 ovarian) was 32 µM.

With `COc1ccc(C=O)cc1O[Si](C)(C)C(C)(C)C` the TGI (SF-539 CNS) was over 100 µM, the TGI (MALME-3M melanoma) was over 100 µM and the TGI (CAKI-1 renal) was over 100 µM. For the same compound, the TGI (IGROV1 ovarian) was over 100 µM, the TGI (SW-620 colon) was over 100 µM and the TGI (UACC-62 melanoma) was over 100 µM. It also gave a TGI (OVCAR-8 ovarian) of over 100 µM.

For `O=C(Nc1ccc(Cl)cc1)C1C(=O)C(=O)N(c2ccc(Cl)cc2)C1=O` (stereo not drawn), the TGI (SF-539 CNS) was over 100 µM, the TGI (MALME-3M melanoma) was over 100 µM and the TGI (CAKI-1 renal) was over 100 µM. The TGI (IGROV1 ovarian) was over 100 µM, the TGI (SW-620 colon) was over 100 µM and the TGI (UACC-62 melanoma) was over 100 µM. The TGI (OVCAR-8 ovarian) was over 100 µM.

In the case of `CCCCCCCCCCCC(=O)OCCOCCOCCOCCOCCOC(=O)CCCCCCCCCCC`, the TGI (MALME-3M melanoma) is reported as over 100 µM, the TGI (CAKI-1 renal) is reported as over 100 µM and the TGI (IGROV1 ovarian) is reported as over 100 µM. It also gave a TGI (SW-620 colon) of over 100 µM, a TGI (UACC-62 melanoma) of over 100 µM and a TGI (OVCAR-8 ovarian) of over 100 µM.

`O=C1N/C(=C\[N+](=O)[O-])c2ccccc21` was tested, and the TGI (SF-539 CNS) was over 100 µM, the TGI (MALME-3M melanoma) was over 100 µM and the TGI (IGROV1 ovarian) was over 100 µM. It also gave a TGI (SW-620 colon) of over 100 µM, a TGI (UACC-62 melanoma) of over 100 µM and a TGI (OVCAR-8 ovarian) of over 100 µM.

In the case of `CCCC1(CC(=O)O)OCCc2c1[nH]c1ccccc21` (stereo not drawn), the TGI (SF-539 CNS) is reported as over 100 µM, the TGI (MALME-3M melanoma) is reported as over 100 µM and the TGI (CAKI-1 renal) is reported as over 100 µM. For the same compound, the TGI (IGROV1 ovarian) was over 100 µM, the TGI (SW-620 colon) was over 100 µM and the TGI (UACC-62 melanoma) was over 100 µM. It also gave a TGI (OVCAR-8 ovarian) of over 100 µM.

`NC1=NN(c2ccccc2)C(=O)C1C(=O)CCC(=O)Nc1cccc(Cl)c1` (stereo not drawn) gave a TGI (SF-539 CNS) of over 100 µM, a TGI (MALME-3M melanoma) of over 100 µM and a TGI (CAKI-1 renal) of over 100 µM. For the same compound, the TGI (IGROV1 ovarian) was over 100 µM, the TGI (SW-620 colon) was over 100 µM and the TGI (UACC-62 melanoma) was over 100 µM. For the same compound, the TGI (OVCAR-8 ovarian) was over 100 µM.

`Cc1ccc(S(=O)(=O)N=Nc2c(O)[nH]c3cc(O)c(C(=O)O)cc23)cc1` gave a TGI (MALME-3M melanoma) of over 100 µM, a TGI (CAKI-1 renal) of over 100 µM and a TGI (DU-145 prostate) of over 100 µM. The TGI (IGROV1 ovarian) was over 100 µM, the TGI (SW-620 colon) was over 100 µM and the TGI (UACC-62 melanoma) was over 100 µM. For the same compound, the TGI (MDA-MB-231 breast) was over 100 µM, the TGI (OVCAR-8 ovarian) was over 100 µM and the TGI (T-47D breast) was over 100 µM.

`COc1ccc2c(c1)C(=O)CCc1cc(OC)c(OC)c(OC)c1-2` showed a TGI (SF-539 CNS) of 87.1 µM, a GI50 (CAKI-1 renal) of under 0.01 µM and a TGI (CAKI-1 renal) of over 100 µM. The GI50 (DU-145 prostate) was under 0.01 µM, the GI50 (SW-620 colon) was under 0.01 µM and the TGI (SW-620 colon) was over 100 µM. The GI50 (UACC-62 melanoma) was under 0.01 µM, the TGI (UACC-62 melanoma) was over 100 µM and the GI50 (MDA-MB-231 breast) was under 0.01 µM. The TGI (MDA-MB-231 breast) was over 100 µM and the GI50 (OVCAR-8 ovarian) was under 0.01 µM.

`CC(C)CNc1nc(-c2ccccc2Cl)nc2ccccc12` showed a GI50 (MALME-3M melanoma) of 12.4 µM, a TGI (MALME-3M melanoma) of 25.9 µM and a GI50 (CAKI-1 renal) of 15 µM. The TGI (CAKI-1 renal) was 32.7 µM, the GI50 (DU-145 prostate) was 16.1 µM and the TGI (DU-145 prostate) was 30.5 µM. The GI50 (IGROV1 ovarian) was 19.7 µM, the TGI (IGROV1 ovarian) was over 100 µM and the GI50 (UACC-62 melanoma) was 14.3 µM. For the same compound, the TGI (UACC-62 melanoma) was 27.4 µM, the GI50 (OVCAR-8 ovarian) was 17.2 µM and the TGI (OVCAR-8 ovarian) was 38.9 µM. It also gave a GI50 (T-47D breast) of 35.2 µM and a TGI (T-47D breast) of over 100 µM.

`C[C@]12CC=CC(=O)[C@@]1(C)CCC(=O)C2` gave a TGI (SF-539 CNS) of over 100 µM, a TGI (MALME-3M melanoma) of over 100 µM and a TGI (CAKI-1 renal) of over 100 µM. The TGI (IGROV1 ovarian) was over 100 µM, the TGI (SW-620 colon) was over 100 µM and the TGI (UACC-62 melanoma) was over 100 µM. It also gave a TGI (OVCAR-8 ovarian) of over 100 µM.

`N#C/C(=C/c1cccc(Oc2ccccc2)c1)c1ccccc1` gave a TGI (SF-539 CNS) of over 100 µM, a TGI (MALME-3M melanoma) of over 100 µM and a TGI (CAKI-1 renal) of over 100 µM. It also gave a TGI (IGROV1 ovarian) of over 100 µM, a TGI (SW-620 colon) of over 100 µM and a TGI (UACC-62 melanoma) of over 100 µM. For the same compound, the TGI (OVCAR-8 ovarian) was over 100 µM.

Compound `Cc1cn(C2CC(OC(=O)c3ccc(Cl)cc3)C(COC(=O)c3ccc(Cl)cc3)O2)c(=O)[nH]c1=O` (stereo not drawn) has a TGI (MALME-3M melanoma) of over 100 µM, a TGI (CAKI-1 renal) of over 100 µM and a TGI (DU-145 prostate) of over 100 µM. For the same compound, the TGI (IGROV1 ovarian) was over 100 µM, the TGI (SW-620 colon) was over 100 µM and the TGI (UACC-62 melanoma) was over 100 µM. The TGI (OVCAR-8 ovarian) was over 100 µM and the TGI (T-47D breast) was over 100 µM.

In the case of `Cc1ccc(S(=O)(=O)OC2CC=CC2)cc1`, the TGI (MALME-3M melanoma) is reported as over 100 µM, the TGI (CAKI-1 renal) is reported as over 100 µM and the TGI (IGROV1 ovarian) is reported as over 100 µM. For the same compound, the TGI (SW-620 colon) was over 100 µM, the TGI (UACC-62 melanoma) was over 100 µM and the TGI (OVCAR-8 ovarian) was over 100 µM.
